In patent publication US9302991B2, “Arylamide derivatives as TTX-S blockers” (RaQualia Pharma Inc., priority 2010, dated 2016):

Legend:
[1] = tested on: CFA-induced weight bearing deficit in rats; assay: CFA-induced weight bearing deficit in rats; assay type: in vivo, Sprague-Dawley rats; conditions: 10 mg/kg per os
Procedure: CFA-Induced Weight Bearing Deficit in Rats
Male Sprague-Dawley rats at 7 weeks old are purchased from Charles River Japan Inc., and housed in groups of two per cage under a 12-h light/dark cycle (lights on at 07:00) with access to food and water ad libitum. CFA-induced weight bearing (WB) deficit is assessed using Incapacitance tester (Linton Instrumentation). The animals are habituated to a plastic case that comes with Incapacitance tester before the day of CFA injection. On the day of CFA injection, the weight distribution of each hind paw is measured 3 times per rat using the tester, and the difference of weight distribution, weight on the right (injected) paw minus weight on left (non-injected) paw, is defined as WB deficit value in g. The duration of the each measurement is adjusted to 3 seconds. CFA is prepared at a concentration of 2-3 mg/mL of Mycobacterium tuberculosis H37 RA in liquid paraffin. After disinfections with 70% ethanol, the rats are injected intraplantarly with 100 microL of CFA (200-300 microgram) into the right hind paw. Two days after CFA injection, the weight distribution of each hind paw is measured and the WB deficit value is calculated in the same manner as mentioned above. […] The weight distribution of each hind paw is measured at the appropriated time after compound administration, and the WB deficit value is calculated as previously explained.

human Nav1.7 (hSCN9A) = molecular target: T1, human Nav1.7 (hSCN9A) (Homo sapiens, UniProt Q15858); assay: Electrophysiology assay for Navs, whole cell patch clamp, Nav1.7; assay type: cell-based; conditions: Kinact, dissociation constant for the inactivated state, read-out: activities (Ki) against Nav1.7
T1 construct: expressed in transfected cells; host or cells: CHO
T1 sequence (Q15858 whole entry): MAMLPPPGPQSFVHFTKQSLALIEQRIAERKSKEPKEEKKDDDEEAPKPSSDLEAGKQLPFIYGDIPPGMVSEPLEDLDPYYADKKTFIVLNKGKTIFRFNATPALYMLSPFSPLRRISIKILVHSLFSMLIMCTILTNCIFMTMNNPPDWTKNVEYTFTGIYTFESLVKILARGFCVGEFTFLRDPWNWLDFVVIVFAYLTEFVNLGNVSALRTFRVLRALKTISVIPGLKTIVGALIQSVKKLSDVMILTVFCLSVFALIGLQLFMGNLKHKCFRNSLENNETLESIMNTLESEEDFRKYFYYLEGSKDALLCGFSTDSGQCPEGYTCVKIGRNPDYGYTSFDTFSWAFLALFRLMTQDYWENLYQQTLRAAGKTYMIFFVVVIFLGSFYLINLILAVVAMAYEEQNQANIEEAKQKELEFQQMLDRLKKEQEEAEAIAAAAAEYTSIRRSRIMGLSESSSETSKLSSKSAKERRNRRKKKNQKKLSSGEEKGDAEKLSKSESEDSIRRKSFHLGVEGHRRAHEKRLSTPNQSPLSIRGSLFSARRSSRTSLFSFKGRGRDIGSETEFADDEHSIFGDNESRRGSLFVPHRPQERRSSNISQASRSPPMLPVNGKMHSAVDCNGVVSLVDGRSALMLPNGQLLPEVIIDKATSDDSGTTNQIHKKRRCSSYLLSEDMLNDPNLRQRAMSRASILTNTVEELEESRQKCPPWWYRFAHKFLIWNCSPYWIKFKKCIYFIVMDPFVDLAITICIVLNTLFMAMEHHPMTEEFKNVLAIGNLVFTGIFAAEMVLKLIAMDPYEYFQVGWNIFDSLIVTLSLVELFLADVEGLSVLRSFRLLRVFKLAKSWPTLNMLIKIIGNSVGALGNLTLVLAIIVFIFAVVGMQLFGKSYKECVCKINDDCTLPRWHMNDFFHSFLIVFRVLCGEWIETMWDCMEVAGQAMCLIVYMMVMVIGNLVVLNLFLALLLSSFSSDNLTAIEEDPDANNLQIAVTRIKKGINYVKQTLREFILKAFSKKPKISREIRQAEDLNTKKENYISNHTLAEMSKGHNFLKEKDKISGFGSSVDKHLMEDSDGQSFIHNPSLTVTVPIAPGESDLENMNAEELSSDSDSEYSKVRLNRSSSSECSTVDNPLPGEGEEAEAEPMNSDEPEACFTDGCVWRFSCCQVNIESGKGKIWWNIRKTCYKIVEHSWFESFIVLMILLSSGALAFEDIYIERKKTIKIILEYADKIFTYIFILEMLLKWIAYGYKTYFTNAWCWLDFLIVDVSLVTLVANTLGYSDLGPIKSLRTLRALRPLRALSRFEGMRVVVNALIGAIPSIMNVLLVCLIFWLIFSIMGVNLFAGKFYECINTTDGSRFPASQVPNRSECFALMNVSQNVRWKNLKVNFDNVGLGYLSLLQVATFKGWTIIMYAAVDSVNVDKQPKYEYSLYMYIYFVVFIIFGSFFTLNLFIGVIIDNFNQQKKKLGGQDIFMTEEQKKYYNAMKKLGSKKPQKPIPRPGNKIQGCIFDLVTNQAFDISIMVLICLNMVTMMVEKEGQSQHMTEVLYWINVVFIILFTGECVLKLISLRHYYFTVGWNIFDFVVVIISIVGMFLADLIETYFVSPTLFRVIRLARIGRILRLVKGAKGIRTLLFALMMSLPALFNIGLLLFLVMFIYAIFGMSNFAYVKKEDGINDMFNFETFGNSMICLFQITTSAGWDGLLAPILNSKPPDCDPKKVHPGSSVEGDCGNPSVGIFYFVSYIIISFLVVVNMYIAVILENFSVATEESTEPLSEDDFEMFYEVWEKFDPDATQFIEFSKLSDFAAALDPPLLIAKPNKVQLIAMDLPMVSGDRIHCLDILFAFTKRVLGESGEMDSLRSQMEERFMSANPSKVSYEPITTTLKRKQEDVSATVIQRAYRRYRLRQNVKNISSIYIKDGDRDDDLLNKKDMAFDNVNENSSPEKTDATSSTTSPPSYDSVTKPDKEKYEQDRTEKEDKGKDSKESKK
Procedure: Electrophysiology Assay for Navs
Whole cell patch clamp recording is used to assess the efficacy or selectivity of Na channel blocker on human Nav1.3 (hSCN3A) expressing HEK293 cells or human Nav1.7 (hSCN9A) expressing CHO cells. Human Nav1.3 expressing HEK293 cells are grown in growth media which comprised: DMEM, 10% heat-inactivated FBS (Hyclone Laboratories Inc), 100 microgram/mL Penicillin/100 U/mL Streptomycin, 150 microgram/mL Zeocin, 3 microgram/mL Geneticin. Human Nav1.7 expressing CHO cells are grown in growth media which comprised: HAM/F-12, 9% heat-inactivated FBS (Hyclone Laboratories Inc), 100 microgram/mL Penicillin/100 U/mL Streptomycin, 100 microgram/mL Hygromycin.
Na channel expressing cells are dissociated by 0.05% Trypsine-EDTA, and then seeded on cover glass for 24-48 hr. […]
The normalized steady-state inactivation curve is constructed using 2 sec (for vehicle) or 60 sec (for drugs) conditioning pulse to different potentials followed immediately by the test pulse to −10 mV. […] The affinity of drugs to resting state of Na channels (Kresting or Kr) is assessed by 30 msec test pulse from a negative holding potential of −120 or −130 mV, where virtually all channels are in the resting state. Kr value is calculated by a conventional 1:1 binding model: Kresting(Kr)={[drug]Imax,drug/(Imax,control−Imax,drug)} […]

[2] = tested on: CFA-induced thermal hyperalgesia in rats; assay: Complete Freund's Adjuvant (CFA)-induced thermal hyperalgesia in rats; assay type: in vivo, Sprague-Dawley rats; conditions: 30 mg/kg per os
Procedure: Complete Freund's Adjuvant (CFA)-Induced Thermal Hyperalgesia in Rats
Male Sprague-Dawley rats at 6 weeks old are purchased from Charles River Japan Inc., and housed in groups of two per cage under a 12-h light/dark cycle (lights on at 07:00) with access to food and water ad libitum. CFA-induced thermal hyperalgesia is assessed using the plantar test apparatus (Ugo Basile) as described by Hargreaves K et al. (Pain 1988, 32: 77-88). The animals are placed in an apparatus consisting of individual testing box on an elevated glass table and allowed to acclimate for at least 10 minutes. Following the habituation, a mobile radiant heat source is located under the table and heat stimulation is applied to the plantar surface of the right hind paw. The latency to remove its hind paw is defined as paw withdrawal latency (PWL) in sec. The cut-off point is set at 30 seconds to prevent tissue damage. CFA is prepared at a concentration of 2-3 mg/mL of Mycobacterium tuberculosis H37 RA in liquid paraffin. After disinfections with 70% ethanol, the rats are injected intraplantarly with 100 microL of CFA (200-300 microgram) into the right hind paw. Two days after CFA injection, PWL is measured in the same manner as mentioned above. […] The PWL is measured at the appropriated time after compound administration. […]

Structure (SMILES): CC(=O)Nc1cc(C(=O)NC(C)c2ccc(OCC(F)(F)F)nc2)ccn1 (single isomer, unassigned; (-)) [Example 1, (−)-2-acetamido-N-(1-(6-(2,2,2-trifluoroethoxy)pyridin-3-yl)ethyl)isonicotinamide]
- activity in CFA-induced weight bearing deficit [1]: significant activity
- Ki (human Nav1.7 (hSCN9A)): 1.2 µM
- activity in CFA-induced thermal hyperalgesia (PWL) [2]: significant activity
